# PubChem BioAssay (NCI)
#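 96-well plates; 48 h exposure; 5 concentrations. Endpoints by linear interpolation between flanking doses. Not reached: highest tested concentration assigned. The concentration for full growth arrest is given as TGI.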
# Key:
# Experiment in all cases: inhibition of tumour cell growth, NCI panel, 48 h
# HCT-116 colon = test system: HCT-116 colon
# MALME-3M melanoma = test system: MALME-3M melanoma
# NCI-H226 lung = test system: NCI-H226 lung
# SK-MEL-2 melanoma = test system: SK-MEL-2 melanoma
# HOP-62 NSCLC = test system: HOP-62 NSCLC
# SW-620 colon = test system: SW-620 colon
# BT-549 breast = test system: BT-549 breast
# MDA-MB-231 breast = test system: MDA-MB-231 breast
# NCI/ADR-RES ovarian = test system: NCI/ADR-RES ovarian
# HL-60(TB) leukemia = test system: HL-60(TB) leukemia
# A498 renal = test system: A498 renal
# NCI-H23 lung = test system: NCI-H23 lung
# MDA-N = test system: MDA-N
# SF-268 CNS = test system: SF-268 CNS
# PC-3 prostate = test system: PC-3 prostate
# SNB-19 CNS = test system: SNB-19 CNS
# SN12C renal = test system: SN12C renal
# T-47D breast = test system: T-47D breast
# A549 NSCLC = test system: A549 NSCLC
# IGROV1 ovarian = test system: IGROV1 ovarian
# LOX IMVI melanoma = test system: LOX IMVI melanoma
# NCI-H460 lung = test system: NCI-H460 lung
# CCRF-CEM leukemia = test system: CCRF-CEM leukemia
# SNB-75 CNS = test system: SNB-75 CNS
# MOLT-4 leukemia = test system: MOLT-4 leukemia
# HCC-2998 colon = test system: HCC-2998 colon
# 786-0 renal = test system: 786-0 renal
# U251 CNS = test system: U251 CNS
# DU-145 prostate = test system: DU-145 prostate
# SK-OV-3 ovarian = test system: SK-OV-3 ovarian
# HS 578T breast = test system: HS 578T breast
# ACHN renal = test system: ACHN renal
# RPMI-8226 leukemia = test system: RPMI-8226 leukemia
# SR leukemia = test system: SR leukemia
# CAKI-1 renal = test system: CAKI-1 renal
# K-562 leukemia = test system: K-562 leukemia
# UO-31 renal = test system: UO-31 renal
# M14 melanoma = test system: M14 melanoma
# HOP-92 NSCLC = test system: HOP-92 NSCLC
# OVCAR-8 ovarian = test system: OVCAR-8 ovarian
# KM12 colon = test system: KM12 colon
# MDA-MB-435 = test system: MDA-MB-435
# SF-295 CNS = test system: SF-295 CNS
# OVCAR-4 ovarian = test system: OVCAR-4 ovarian
# SK-MEL-28 melanoma = test system: SK-MEL-28 melanoma
# SF-539 CNS = test system: SF-539 CNS
# COLO 205 colon = test system: COLO 205 colon
# TK-10 renal = test system: TK-10 renal
# HCT-15 colon = test system: HCT-15 colon
# OVCAR-3 ovarian = test system: OVCAR-3 ovarian
# MCF7 breast = test system: MCF7 breast
# UACC-257 melanoma = test system: UACC-257 melanoma
# HT29 colon = test system: HT29 colon
# RXF 393 renal = test system: RXF 393 renal
# OVCAR-5 ovarian = test system: OVCAR-5 ovarian
# SK-MEL-5 melanoma = test system: SK-MEL-5 melanoma
# NCI-H522 lung = test system: NCI-H522 lung
# EKVX NSCLC = test system: EKVX NSCLC
# UACC-62 melanoma = test system: UACC-62 melanoma
compound,measurement,setting,value
CC(=O)NC1C(OCc2ccccc2)OC(CO)C(O)C1OC(C)C(=O)NC(C(=O)N[C@@H](CCC(=O)NCCNCCNc1c2ccccc2nc2cccc([N+](=O)[O-])c12)C(N)=O)C(C)C (some centres not stated),TGI,HCT-116 colon,56.2 µM
same,TGI,MALME-3M melanoma,> 100 µM
same,TGI,NCI-H226 lung,> 100 µM
same,TGI,SK-MEL-2 melanoma,46.7 µM
same,TGI,HOP-62 NSCLC,> 100 µM
same,TGI,SW-620 colon,58.5 µM
same,TGI,BT-549 breast,> 100 µM
same,TGI,MDA-MB-231 breast,> 100 µM
same,TGI,NCI/ADR-RES ovarian,> 100 µM
same,TGI,HL-60(TB) leukemia,> 100 µM
same,TGI,A498 renal,> 100 µM
same,TGI,NCI-H23 lung,> 100 µM
same,TGI,MDA-N,54.5 µM
same,TGI,SF-268 CNS,> 100 µM
same,TGI,PC-3 prostate,> 100 µM
same,TGI,SNB-19 CNS,> 100 µM
same,TGI,SN12C renal,> 100 µM
same,TGI,T-47D breast,> 100 µM
same,TGI,A549 NSCLC,97 µM
same,TGI,IGROV1 ovarian,> 100 µM
same,TGI,LOX IMVI melanoma,> 100 µM
same,TGI,NCI-H460 lung,> 100 µM
same,TGI,CCRF-CEM leukemia,> 100 µM
same,TGI,SNB-75 CNS,> 100 µM
same,TGI,MOLT-4 leukemia,53.2 µM
same,TGI,HCC-2998 colon,50.4 µM
same,TGI,786-0 renal,76.9 µM
same,TGI,U251 CNS,> 100 µM
same,TGI,DU-145 prostate,> 100 µM
same,TGI,SK-OV-3 ovarian,> 100 µM
same,TGI,HS 578T breast,> 100 µM
same,TGI,ACHN renal,73.5 µM
same,TGI,RPMI-8226 leukemia,58.7 µM
same,TGI,SR leukemia,5.24 µM
same,TGI,CAKI-1 renal,> 100 µM
same,TGI,K-562 leukemia,19.9 µM
same,TGI,UO-31 renal,64.6 µM
same,TGI,M14 melanoma,32.2 µM
same,TGI,HOP-92 NSCLC,69.9 µM
same,TGI,OVCAR-8 ovarian,> 100 µM
same,TGI,KM12 colon,98.7 µM
same,TGI,MDA-MB-435,29.3 µM
same,TGI,SF-295 CNS,> 100 µM
same,TGI,OVCAR-4 ovarian,> 100 µM
same,TGI,SK-MEL-28 melanoma,> 100 µM
same,TGI,SF-539 CNS,45.6 µM
same,TGI,COLO 205 colon,56.7 µM
same,TGI,TK-10 renal,> 100 µM
same,TGI,HCT-15 colon,> 100 µM
same,TGI,OVCAR-3 ovarian,> 100 µM
same,TGI,MCF7 breast,41.5 µM
CC[C@]1(Cc2ccc(OC)c(OC)c2)C=[N+]([O-])O[C@H](OC2CCCC2(c2ccccc2)c2ccccc2)[C@@H]1OC(=O)c1ccccc1 (some centres not stated),TGI,HCT-116 colon,> 100 µM
same,TGI,NCI-H226 lung,> 100 µM
same,TGI,SK-MEL-2 melanoma,37.5 µM
same,TGI,HOP-62 NSCLC,62.3 µM
same,TGI,UACC-257 melanoma,> 66.5 µM
same,TGI,SW-620 colon,> 100 µM
same,TGI,BT-549 breast,> 100 µM
same,TGI,MDA-MB-231 breast,> 100 µM
same,TGI,NCI/ADR-RES ovarian,> 62.7 µM
same,TGI,HL-60(TB) leukemia,> 100 µM
same,TGI,NCI-H23 lung,> 45.9 µM
same,TGI,MDA-N,> 100 µM
same,TGI,SF-268 CNS,> 100 µM
same,TGI,HT29 colon,> 71.1 µM
same,TGI,PC-3 prostate,> 100 µM
same,TGI,RXF 393 renal,> 25.9 µM
same,TGI,SNB-19 CNS,> 100 µM
same,TGI,SN12C renal,> 88.2 µM
same,TGI,T-47D breast,> 27.2 µM
same,TGI,A549 NSCLC,> 100 µM
same,TGI,IGROV1 ovarian,> 100 µM
same,TGI,OVCAR-5 ovarian,> 100 µM
same,TGI,LOX IMVI melanoma,> 27.5 µM
same,TGI,NCI-H460 lung,> 100 µM
same,TGI,CCRF-CEM leukemia,> 30.1 µM
same,TGI,SNB-75 CNS,> 37.9 µM
same,TGI,SK-MEL-5 melanoma,12.7 µM
same,TGI,MOLT-4 leukemia,> 21.9 µM
same,TGI,HCC-2998 colon,> 27.4 µM
same,TGI,786-0 renal,> 100 µM
same,TGI,U251 CNS,> 100 µM
same,TGI,DU-145 prostate,> 56.3 µM
same,TGI,SK-OV-3 ovarian,> 100 µM
same,TGI,HS 578T breast,> 100 µM
same,TGI,ACHN renal,> 34.8 µM
same,TGI,SR leukemia,> 100 µM
same,TGI,CAKI-1 renal,> 100 µM
same,TGI,NCI-H522 lung,> 100 µM
same,TGI,K-562 leukemia,> 100 µM
same,TGI,UO-31 renal,> 100 µM
same,TGI,M14 melanoma,> 100 µM
same,TGI,HOP-92 NSCLC,> 100 µM
same,TGI,OVCAR-8 ovarian,> 100 µM
same,TGI,KM12 colon,22.9 µM
same,TGI,MDA-MB-435,> 46.3 µM
same,TGI,EKVX NSCLC,> 23.8 µM
same,TGI,SF-295 CNS,> 65.4 µM
same,TGI,OVCAR-4 ovarian,> 100 µM
same,TGI,UACC-62 melanoma,> 38.6 µM
same,TGI,SK-MEL-28 melanoma,> 100 µM
same,TGI,SF-539 CNS,> 100 µM
same,TGI,COLO 205 colon,> 100 µM
same,TGI,TK-10 renal,> 33.4 µM
same,TGI,HCT-15 colon,> 100 µM
same,TGI,OVCAR-3 ovarian,13.7 µM
same,TGI,MCF7 breast,> 24.9 µM
